Results from ChEMBL document CHEMBL5104093, “A comprehensive review on β-lapachone: Mechanisms, structural modifications, and therapeutic potentials” (Eur J Med Chem, 2021).
Values after ≈ are worked out from the molar mass of the structure shown.

Key:
[1] = tested on: Mycobacterium tuberculosis; assay: Antimycobacterial activity against Mycobacterium tuberculosis H37Rv ATCC 27294 assessed as bacterial growth inhibition incubated for 7 days by resazurin dye based microtiter assay; format: functional; conditions: ATCC 27294, 168 h, time 7 day
Trypanosoma cruzi [2] = assay: Antitrypanosomal activity against bloodstream form of Trypanosoma cruzi Y trypomastigotes infected in albino mouse assessed as reduction in viable parasite in blood incubated for 24 hrs by Neubauer counting chamber method; format: functional, organism-based
Trypanosoma cruzi [3] = assay: Antitrypanosomal activity against bloodstream form of Trypanosoma cruzi Y trypomastigotes infected in albino mouse assessed as reduction in viable parasite in blood by Neubauer counting chamber method; format: functional, organism-based
HL-60 = assay: Cytotoxicity against human HL-60 cells assessed as reduction in cell viability incubated for 72 hrs by MTT assay; format: functional, cell-based; conditions: HL-60, 72 h
Jurkat = assay: Cytotoxicity against human Jurkat cells assessed as reduction in cell viability incubated for 72 hrs by MTT assay; format: functional, cell-based
MOLT-4 = assay: Cytotoxicity against human MOLT-4 cells assessed as reduction in cell viability incubated for 72 hrs by MTT assay; format: functional, cell-based; conditions: MOLT-4, 72 h
K562 = assay: Cytotoxicity against human K562 cells assessed as reduction in cell viability incubated for 72 hrs by MTT assay; format: functional, cell-based; conditions: K562, 72 h
Trypanosoma cruzi [4] = assay: Antitrypanosomal activity against bloodstream form of Trypanosoma cruzi trypomastigotes infected in Swiss mouse assessed as reduction in viable parasite in blood incubated for 24 hrs by Neubauer counting chamber method; format: functional, organism-based
PC-3 = assay: Cytotoxicity against human PC-3 cells assessed as reduction in cell viability incubated for 72 hrs by MTT assay; format: functional, cell-based; conditions: PC-3, 72 h
SF-295 [5] = assay: Cytotoxicity against human SF-295 cells assessed as reduction in cell viability incubated for 72 hrs by MTT assay; format: functional, cell-based; conditions: SF-295, 72 h
MDA-MB-435 = assay: Cytotoxicity against human MDA-MB-435 cells assessed as reduction in cell viability incubated for 72 hrs by MTT assay; format: functional, cell-based; conditions: MDA-MB-435, 72 h
HCT-8 = assay: Cytotoxicity against human HCT-8 cells assessed as reduction in cell viability incubated for 72 hrs by MTT assay; format: functional, cell-based; conditions: HCT-8, 72 h
B16 = assay: Cytotoxicity against mouse B16 cells assessed as reduction in cell viability incubated for 72 hrs by MTT assay; format: functional, cell-based; conditions: B16, 72 h
Trypanosoma cruzi [6] = assay: Antitrypanosomal activity against bloodstream form of Trypanosoma cruzi Y trypomastigotes infected in Swiss Webster mouse assessed as reduction in viable parasite in blood incubated for 24 hrs by Neubauer counting chamber based light microscopic analysis; format: functional, organism-based
Staphylococcus aureus = assay: Antibacterial activity against Staphylococcus aureus 2065 MA assessed as diameter of bacterial growth inhibition by Mueller-Hinton broth based assay; format: functional
HepG2 = assay: Cytotoxicity against human HepG2 cells assessed as reduction in cell viability incubated for 48 hrs by MTT assay; format: functional, cell-based; conditions: HepG2, 48 h
OVCAR-8 = assay: Cytotoxicity against human OVCAR-8 cells assessed as reduction in cell viability by MTT assay; format: functional, cell-based
SF-295 [7] = assay: Cytotoxicity against human SF-295 cells assessed as reduction in cell viability by MTT assay; format: functional, cell-based
HCT-116 = assay: Cytotoxicity against human HCT-116 cells assessed as reduction in cell viability by MTT assay; format: functional, cell-based

CC1(C)OC2=C(C(=O)C(=O)c3ccccc32)[C@H](n2cc(-c3ccc(F)cc3)nn2)[C@H]1Br
MIC [1]: < 6.25 µg/mL

COc1ccc(-c2nc3c(o2)c2c(c4ccccc43)OC(C)(C)CC2)cc1
IC50 (Trypanosoma cruzi [2]): 3500 µM

O=C1C(=O)c2ccccc2C2=C1CC(Cn1cc(COC3CCCCO3)nn1)O2 (stereo not given)
IC50 (Trypanosoma cruzi [3]): 52.9 µM

COc1ccc(-c2cn(C3C4=C(OC3(C)C)c3ccccc3C(=O)C4=O)nn2)cc1 (stereo not given)
IC50 (HL-60): 0.94 µM | IC50 (Jurkat): 0.94 µM | IC50 (MOLT-4): 0.94 µM | IC50 (K562): 0.94 µM

CC1CC2=C(O1)c1ccccc1C(=O)C2=O (stereo not given)
IC50 (HL-60): 1.11 µM

Cc1ccccc1-c1nc2c([nH]1)c1c(c3ccccc32)OC(C)(C)CC1
IC50 (Trypanosoma cruzi [4]): 37.5 µM | MIC [1]: 1.56 µg/mL (≈ 4.56 µM)

CC1(C)CC2=C(O1)c1ccccc1C(=O)C2=O [NOR-BETA-LAPACHONE]
IC50 (Jurkat): 1.34 µM

CC(C)(O)c1cn(C2C3=C(OC2(C)C)c2ccccc2C(=O)C3=O)nn1 (stereo not given)
IC50 (HL-60): 2.8 µM | IC50 (PC-3): 2.8 µM | IC50 (SF-295 [5]): 2.8 µM | IC50 (MDA-MB-435): 2.8 µM | IC50 (HCT-8): 2.8 µM | IC50 (B16): 2.8 µM

CC1(C)OC2=C(C(=O)C(=O)c3ccccc32)C1n1cc(CO)nn1 (stereo not given)
IC50 (HL-60): 3.38 µM | IC50 (PC-3): 3.38 µM | IC50 (SF-295 [5]): 3.38 µM | IC50 (MDA-MB-435): 3.38 µM | IC50 (HCT-8): 3.38 µM | IC50 (B16): 3.38 µM

CC1(C)OC2=C(CC1[Se]c1ccccc1)C(=O)C(=O)c1ccccc12 (stereo not given)
IC50 (Trypanosoma cruzi [6]): 103 µM

CCCC[Se]C1CC2=C(OC1(C)C)c1ccccc1C(=O)C2=O (stereo not given)
IC50 (Trypanosoma cruzi [6]): 109 µM

CCOC(=O)C1=C2C3=C(OC(C)(C)CC3)c3ccccc3C2(O)CC1=O (stereo not given)
IC50 (Trypanosoma cruzi [2]): 56.1 µM

CC1(C)CCc2c(c3ccccc3c3nc(-c4ccccc4)[nH]c23)O1
IC50 (Trypanosoma cruzi [4]): 37.5 µM

COc1ccc(-c2cn([C@H]3C4=C(OC(C)(C)[C@@H]3Br)c3ccccc3C(=O)C4=O)nn2)cc1
MIC [1]: < 6.25 µg/mL

CC1(C)OC2=C(C(=O)C(=O)c3ccccc32)C1Sc1c(F)c(F)c(F)c(F)c1F (stereo not given)
zone diameter (Staphylococcus aureus): 10 mm

CC1(C)CCc2c(c3ccccc3c3nc(-c4cccc(Br)c4)[nH]c23)O1
MIC [1]: 1.56 µg/mL (≈ 3.83 µM)

CC(=O)OC[C@H]1O[C@@H](OCc2cn(C3C4=C(OC3(C)C)c3ccccc3C(=O)C4=O)nn2)[C@H](OC(C)=O)[C@@H](OC(C)=O)[C@H]1OC(C)=O (stereo not given in full)
IC50 (Trypanosoma cruzi [3]): 209 µM

O=C1C(=O)c2c(O)cccc2C2=C1CCC(c1ccccc1)O2 (stereo not given)
IC50 (HL-60): 0.11 µM | IC50 (SF-295 [5]): 0.11 µM | IC50 (MDA-MB-435): 0.11 µM | IC50 (HCT-8): 0.11 µM

C=CCC1Cc2c(c3ccccc3c3nc4ccccc4nc23)OC1(C)C (stereo not given)
MIC [1]: 0.78 µg/mL (≈ 2.2 µM)

CC1(C)CCc2c(c3ccccc3c3nc(-c4ccc([N+](=O)[O-])cc4)[nH]c23)O1
MIC [1]: > 100 µg/mL

CC1(C)CCc2c(c3ccccc3c3nc(-c4ccc(Br)cc4)[nH]c23)O1
IC50 (Trypanosoma cruzi [4]): 37.5 µM

CC1(C)OC2=C(C(=O)C(=O)c3ccccc32)C1S(=O)(=O)C1CCCCC1 (stereo not given)
zone diameter (Staphylococcus aureus): 8 mm

O=C1C(=O)c2ccccc2C2=C1CC(CI)O2 (stereo not given)
IC50 (Jurkat): 1.38 µM | IC50 (MOLT-4): 1.38 µM | IC50 (K562): 1.38 µM

O=C1C(=O)c2ccccc2C2=C1CCCO2
IC50 (HepG2): 0.92 µM

CC1(C)OC2=C(C(=O)C(=O)c3ccccc32)C1n1cc(-c2ccc(F)cc2)nn1 (stereo not given)
IC50 (HL-60): 1.33 µM | IC50 (Jurkat): 1.33 µM | IC50 (MOLT-4): 1.33 µM | IC50 (K562): 1.33 µM

CC1(C)CCc2c(c3ccccc3c3nc(-c4ccc5c(c4)OCO5)oc23)O1
IC50 (Trypanosoma cruzi [2]): 270 µM

CC1(C)OC2=C(C(=O)C(=O)c3ccccc32)[C@H](n2cc(-c3ccccc3)nn2)[C@H]1Br
MIC [1]: < 6.25 µg/mL

CC1(C)OC2=C(CC1[Se]c1cccc(C(F)(F)F)c1)C(=O)C(=O)c1ccccc12 (stereo not given)
IC50 (Trypanosoma cruzi [6]): 54.9 µM | IC50 (Trypanosoma cruzi [3]): 54.9 µM

CC1(C)OC2=C(C(=O)C(=O)c3ccccc32)[C@H](n2cc(-c3ccc(Br)cc3)nn2)[C@H]1Br
MIC [1]: < 6.25 µg/mL

CC1(C)Oc2c(c3nc4ccccc4nc3c3ccccc23)C=C1Br
MIC [1]: < 6.25 µg/mL

CC1(C)OC2=C(C(=O)C(=O)c3ccccc32)C1n1cc(C2=CCCCC2)nn1 (stereo not given)
IC50 (HL-60): < 5 µM | IC50 (PC-3): < 1.25 µM | IC50 (SF-295 [5]): < 1.25 µM | IC50 (MDA-MB-435): < 1.25 µM | IC50 (HCT-8): < 1.25 µM | IC50 (B16): < 1.25 µM

COc1ccc(/C=C/C(=O)c2ccc(NC3C4=C(OC3(C)C)c3ccccc3C(=O)C4=O)cc2)cc1 (stereo not given)
IC50 (Trypanosoma cruzi [3]): 230 µM

O=C1C(=O)c2c(O)cccc2C2=C1CCC(c1ccc(Cl)cc1)O2 (stereo not given)
IC50 (HL-60): 0.17 µM | IC50 (SF-295 [5]): 0.17 µM | IC50 (MDA-MB-435): 0.15 µM | IC50 (HCT-8): 0.17 µM

CC1(C)OC2=C(C(=O)C(=O)c3ccccc32)C1n1cc(-c2ccc([N+](=O)[O-])cc2)nn1 (stereo not given)
IC50 (HL-60): 0.74 µM | IC50 (Jurkat): 0.74 µM | IC50 (MOLT-4): 0.74 µM | IC50 (K562): 0.74 µM

COc1ccc(-c2nc3c([nH]2)c2c(c4ccccc43)OC(C)(C)CC2)cc1
IC50 (Trypanosoma cruzi [2]): 259 µM

CC1CCC2C(C1)c1c(c3ccccc3c3nc4ccccc4nc13)OC2(C)C (stereo not given)
MIC [1]: < 6.25 µg/mL

CC1(C)Oc2c(c3nc4ccccc4nc3c3ccccc23)C1N=[N+]=[N-] (stereo not given)
MIC [1]: 25 µg/mL (≈ 73.2 µM)

CC1(C)CCc2c(c3ccccc3c3nc(-c4cccc(F)c4)[nH]c23)O1
MIC [1]: 1.56 µg/mL (≈ 4.5 µM)

CC1(C)CCc2c(c3ccccc3c3nc(-c4cccc(C(F)(F)F)c4)[nH]c23)O1
MIC [1]: 1.56 µg/mL (≈ 3.94 µM)

O=C1C(=O)c2c(O)cccc2C2=C1CCC(c1ccc(Br)cc1)O2 (stereo not given)
IC50 (HL-60): 0.15 µM | IC50 (SF-295 [5]): 0.15 µM | IC50 (MDA-MB-435): 0.15 µM | IC50 (HCT-8): 0.15 µM

CC1(C)OC2=C(C(=O)C(=O)c3ccccc32)C1N=[N+]=[N-] (stereo not given)
IC50 (HL-60): 1.19 µM | IC50 (PC-3): 1.19 µM | IC50 (SF-295 [5]): 1.19 µM | IC50 (MDA-MB-435): 1.19 µM | IC50 (HCT-8): 1.19 µM | IC50 (B16): 1.19 µM

CC1(C)CCc2c(c3ccccc3c3nc(-c4ccccc4Cl)[nH]c23)O1
IC50 (Trypanosoma cruzi [4]): 37.5 µM

CC1(C)CCc2c(c3ccccc3c3nc(-c4ccc(F)cc4)[nH]c23)O1
IC50 (Trypanosoma cruzi [4]): 37.5 µM

COc1ccccc1-c1nc2c([nH]1)c1c(c3ccccc32)OC(C)(C)CC1
MIC [1]: 1.56 µg/mL (≈ 4.35 µM)

O=C1C(=O)c2c(O)cccc2C2=C1CCC(c1ccc(F)cc1)O2 (stereo not given)
IC50 (HL-60): 0.21 µM | IC50 (SF-295 [5]): 0.21 µM | IC50 (MDA-MB-435): 0.15 µM | IC50 (HCT-8): 0.21 µM

Cc1ccc(-c2nc3c([nH]2)c2c(c4ccccc43)OC(C)(C)CC2)cc1
MIC [1]: 3.12 µg/mL (≈ 9.11 µM)

CC1(C)O[C@H]2O[C@H](COC3C4=C(OC3(C)C)c3ccccc3C(=O)C4=O)[C@@H](OCc3ccccc3)[C@H]2O1 (stereo not given in full)
IC50 (OVCAR-8): 0.16 µM | IC50 (SF-295 [7]): 0.16 µM | IC50 (HCT-116): 0.16 µM

Cc1cccc(S(=O)(=O)C2C3=C(OC2(C)C)c2ccccc2C(=O)C3=O)c1 (stereo not given)
zone diameter (Staphylococcus aureus): 7 mm
